Measured values from US20100256104A1, “NOVEL AMIDE COMPOUNDS” (ASTRAZENECA R&D, priority 2009, published 2010).

molecular target: T1, recombinant human GR (Homo sapiens, UniProt P04150); assay: Human Glucocorticoid Receptor (GR) Assay, fluorescence polarization competition with GS Red tracer; settings: 2 hours at room temperature, 100% control 10 μM Dexamethasone, XLfit model 205, read-out: Inhibition of GR binding, IC50
T1 construct: purchased Panvera/Invitrogen P2812 (kit P2893)
T1 sequence (P04150 1-777): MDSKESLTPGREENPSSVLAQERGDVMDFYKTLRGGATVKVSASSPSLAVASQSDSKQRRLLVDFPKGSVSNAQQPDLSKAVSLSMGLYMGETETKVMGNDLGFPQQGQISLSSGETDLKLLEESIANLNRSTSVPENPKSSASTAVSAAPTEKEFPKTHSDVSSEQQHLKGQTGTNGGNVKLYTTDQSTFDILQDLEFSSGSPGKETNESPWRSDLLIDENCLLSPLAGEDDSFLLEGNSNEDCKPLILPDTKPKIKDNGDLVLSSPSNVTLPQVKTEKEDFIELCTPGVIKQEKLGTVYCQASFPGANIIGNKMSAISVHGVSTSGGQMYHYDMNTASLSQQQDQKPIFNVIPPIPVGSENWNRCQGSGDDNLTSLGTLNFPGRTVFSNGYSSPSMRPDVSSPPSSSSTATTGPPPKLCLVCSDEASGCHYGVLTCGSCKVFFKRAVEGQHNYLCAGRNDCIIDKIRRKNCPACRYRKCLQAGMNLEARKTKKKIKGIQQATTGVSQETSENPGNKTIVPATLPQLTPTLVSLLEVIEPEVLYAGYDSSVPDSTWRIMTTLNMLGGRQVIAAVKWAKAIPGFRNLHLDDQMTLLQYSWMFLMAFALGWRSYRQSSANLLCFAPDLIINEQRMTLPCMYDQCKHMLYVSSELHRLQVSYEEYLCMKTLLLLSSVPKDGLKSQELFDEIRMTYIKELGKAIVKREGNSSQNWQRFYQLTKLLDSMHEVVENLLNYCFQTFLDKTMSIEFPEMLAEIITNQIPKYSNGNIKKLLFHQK
Outline: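 Fluorescence polarization competition: recombinant human GR with GS Red tracer, stabilizing peptide and DTT in potassium phosphate/sodium molybdate/EDTA buffer. 2 h in dark at room temperature, read at ex 530/em 590 nm. Controls: DMSO (0%) and 10 μM dexamethasone (100%).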

Row | IC50 [nM] | Structure (SMILES)
1 | 10 | COCC(=O)O[C@]1(C(=O)SCC#N)CC[C@H]2[C@@H]3CCC4=Cc5c(cnn5-c5cccc(C(=O)N6CCC[C@@H]6C(N)=O)c5)C[C@]4(C)[C@@]3(F)[C@@H](O)C[C@@]21C [Example 57, (1R,3aS,3bS,10aS, 10bR,11S,12aS)-7-(3-{[(2R)-2-carbamoyl-pyrrolidin-1-yl]carbonyl}phenyl)-1-{[(cyanomethyl)sulfanyl]carbonyl}-10b-fluoro-11-hydroxy-10a,12a-dimethyl-1,2,3,3a,3b,4,5,7,10, 10a,10b,11,12,12a-tetradecahydrocyclo-penta[5,6]naphtho [1,2-f]indazol-1-yl methoxyacetate]
2 | 2.2 | CCC(=O)O[C@]1(C(=O)SCF)CC[C@H]2[C@@H]3CCC4=Cc5c(cnn5-c5cccc(C(=O)NCC(N)=O)c5)C[C@]4(C)[C@@]3(F)[C@@H](O)C[C@@]21C [Example 44, (1R,3aS,3bS,10aS, 10bR,11S,12aS)-7-{3-[(2-amino-2-oxoethyl)carbamoyl]phenyl}-10b-fluoro-1-{[(fluoromethyl)sulfanyl]carbonyl}-11-hydroxy-10a,12a-dimethyl-1,2,3,3a,3b,4,5,7,10, 10a,10b,11,12,12a-tetradecahydrocyclo-penta[5,6]naphtho [1,2-f]indazol-1-yl propanoate]
3 | 4.4 | CCC(=O)O[C@]1(C(=O)SCF)[C@H](C)C[C@H]2[C@@H]3CCC4=Cc5c(cnn5-c5cccc(C(=O)N6CCC[C@@H]6C(N)=O)c5)C[C@]4(C)[C@@]3(F)[C@@H](O)C[C@@]21C [Example 42, (1R,2R,3aS,3bS, 10aS,10bR,11S,12aS)-7-(3-{[(2R)-2-carbamoyl-pyrrolidin-1-yl]carbonyl}phenyl)-10b-fluoro-1-{(fluoromethyl)sulfanyl] carbonyl}-11-hydroxy-2,10a,12a-trimethyl-1,2,3,3a,3b,4,5,7,10, 10a,10b,11,12,12a-tetradecahydrocyclo-penta[5,6]naphtho [1,2-f]indazol-1-yl propanoate]
4 | 4.2 | C[C@]12Cc3cnn(-c4cccc(C(=O)N5CCC[C@@H]5C(N)=O)c4)c3C=C1CC[C@H]1[C@@H]3CC[C@](OC(=O)C4CC4)(C(=O)SCC#N)[C@@]3(C)C[C@H](O)[C@@]12F [Example 54, (1R,3aS,3bS,10aS, 10bR,11S,12aS)-7-(3-{[(2R)-2-carbamoyl-pyrrolidin-1-yl]carbonyl}phenyl)-1-{[(cyanomethyl)sulfanyl]carbonyl}-10b-fluoro-11-hydroxy-10a,12a-dimethyl-1,2,3,3a, 3b,4,5,7,10,10a,- 10b,11,12,12a-tetradeca-hydrocyclo-penta[5,6]naphtho [1,2-f]indazol-1-yl cyclopropanecarboxylate]
5 | 2.5 | CSC(=O)[C@@]1(OC(=O)C2CC2)CC[C@H]2[C@@H]3CCC4=Cc5c(cnn5-c5cccc(C(=O)N6CCC[C@@H]6C(N)=O)c5)C[C@]4(C)[C@@]3(F)[C@@H](O)C[C@@]21C [Example 53, (1R,3aS,3bS,10aS,10bR,11S,12aS)-7-(3-{[(2R)-2-carbamoylpyrrolidin-1-yl]carbonyl}phenyl)-10b-fluoro-11-hydroxy-10a,12a-dimethyl-1-[(methylsulfanyl)carbonyl]-1,2,3,3a,3b,4,5,7,10,10a,10b,11,12,12a-tetradecahydrocyclopenta[5,6]naphtho[1,2-f]indazol-1-yl cyclopropanecarboxylate]
6 | 2.5 | CCC(=O)O[C@]1(C(=O)SCF)CC[C@H]2[C@@H]3CCC4=Cc5c(cnn5-c5cccc(C(=O)N6CCC[C@@H]6C(N)=O)c5)C[C@]4(C)[C@H]3[C@@H](O)C[C@@]21C [Example 13, (1R,3aS,3bS,10aR,10bS,11S,12aS)-7-(3-{[(2R)-2-Carbamoylpyrrolidin-1-yl]carbonyl}phenyl)-1-{[(fluoromethyl)sulfanyl]carbonyl}-11-hydroxy-10a,12a-dimethyl-1,2,3,3a,3b,4,5,7,10,10a,10b,11,12,12a-tetradecahydrocyclopenta[5,6]naphtho[1,2-f]indazol-1-yl propanoate]
7 | 4.3 | COCC(=O)O[C@]1(C(=O)SCF)CC[C@H]2[C@@H]3CCC4=Cc5c(cnn5-c5cccc(C(=O)N6CCC[C@@H]6C(N)=O)c5)C[C@]4(C)[C@@]3(F)[C@@H](O)C[C@@]21C [Example 15, (1R,3aS,3bS,10aS,10bR,11S,12aS)-7-(3-{[(2R)-2-Carbamoylpyrrolidin-1-yl]carbonyl}phenyl)-10b-fluoro-1-{[(fluoromethyl)sulfanyl]carbonyl}-11-hydroxy-10a,12a-dimethyl-1,2,3,3a,3b,4,5,7,10,10a,10b,11,12,12a-tetradecahydrocyclopenta[5,6]naphtho[1,2-f]indazol-1-yl methoxyacetate]
8 | 0.98 | COCCNC(=O)c1cccc(-n2ncc3c2C=C2CC[C@@H]4[C@H]([C@@H](O)C[C@@]5(C)[C@H]4CC[C@]5(OC(=O)C4CC4)C(=O)SCF)[C@@]2(C)C3)c1 [Example 5, (1R,3aS,3bS,10aR,10bS,11S,12aS)-1-{[(Fluoromethyl)sulfanyl]carbonyl}-11-hydroxy-7-{3-[(2-methoxyethyl)carbamoyl]phenyl}-10a,12a-dimethyl-1,2,3,3a,3b,4,5,7,10,10a,10b,11,12,12a-tetradecahydrocyclopenta[5,6]naphtho[1,2-f]indazol-1-yl cyclopropanecarboxylate]

The next lines start with the compound.

Row | Structure (SMILES) | IC50 [nM]
9 | CCC(=O)O[C@]1(C(=O)SCF)CC[C@H]2[C@@H]3CCC4=Cc5c(cnn5-c5cccc(C(=O)NCC(N)=O)c5)C[C@]4(C)[C@H]3[C@@H](O)C[C@@]21C [Example 18, (1R,3aS,3bS,10aR,10bS,11S, 12aS)-7-{3-[(2-amino-2-oxoethyl)carbamoyl]phenyl}-1-{[(fluoromethyl)sulfanyl]carbonyl}-11-hydroxy-10a, 12a-dimethyl-1,2,3,3a,3b,4,5,7,10,10a,10b,11,12,12a-tetradecahydrocyclopenta[5,6] naphtho[1,2-f]indazol-1-yl propanoate] | 1.4
10 | CCC(=O)O[C@]1(C(=O)SCC#N)CC[C@H]2[C@@H]3CCC4=Cc5c(cnn5-c5cccc(C(=O)NCCOC)c5)C[C@]4(C)[C@H]3[C@@H](O)C[C@@]21C [Example 1, (1R,3aS,3bS,10aR,10bS,11S,12aS)-1-{[(Cyanomethyl)sulfanyl]carbonyl}-11-hydroxy-7-{3-[(2-methoxyethyl)carbamoyl]phenyl}-10a,12a-dimethyl-1,2,3,3a,3b,4,5,7,10,10a,10b,11,12,12a-tetradecahydrocyclopenta[5,6]naphtho[1,2-f]indazol-1-yl propanoate] | 1
11 | CCC(=O)O[C@]1(C(=O)SCF)CC[C@H]2[C@@H]3C[C@H](C)C4=Cc5c(cnn5-c5cccc(C(=O)N[C@@H](C)C(N)=O)c5)C[C@]4(C)[C@H]3[C@@H](O)C[C@@]21C [Example 23, (1R,3aS,3bS,5S, 10aR,10bS,11S,12aS)-7-(3-{[(1S)-2-amino-1-methyl-2-oxoethyl]carbamoyl}phenyl)-1-{[(fluoromethyl)sulfanyl]carbonyl}-11-hydroxy-5,10a,12a-trimethyl-1,2,3,3a,3b,4,5,7,10, 10a,10b,11,12,12a-tetradecahydrocyclo-penta[5,6]naphtho [1,2-f]indazol-1-yl propanoate] | 4
12 | C[C@H]1C[C@@H]2[C@H]([C@@H](O)C[C@@]3(C)[C@H]2CC[C@]3(OC(=O)[C@H]2CCCO2)C(=O)SCF)[C@@]2(C)Cc3cnn(-c4cccc(C(=O)NCC(N)=O)c4)c3C=C12 [Example 30, (1R,3aS,3bS,5S, 10aR,10bS,11S,12aS)-7-{3-[(2-amino-2-oxoethyl)carbamoyl]phenyl}-1-{[(fluoromethyl)sulfanyl]carbonyl}-11-hydroxy-5,10a,12a-trimethyl-1,2,3,3a,3b,4,5,7,10, 10a,10b,11,12,12a-tetradecahydrocyclo-penta[5,6]naphtho [1,2-f]indazol-1-yl (2R)-tetrahydrofuran-2-carboxylate] | 2.2
13 | COCC(=O)O[C@]1(C(=O)SCF)CC[C@H]2[C@@H]3CCC4=Cc5c(cnn5-c5cccc(C(=O)N[C@@H]6CCOC6)c5)C[C@]4(C)[C@H]3[C@@H](O)C[C@@]21C [Example 40, (1R,3aS,3bS,10aR, 10bS,11S,12aS)-1-{[(fluoromethyl)sulfanyl]carbonyl}-11-hydroxy-10a,12a-dimethyl-7-{3-[(3R)-tetrahydrofuran-3-ylcarbamoyl]phenyl}-1,2,3,3a,3b,4,5,7,10, 10a,10b,11,12,12a-tetradecahydrocyclo-penta[5,6]naphtho [1,2-f]indazol-1-yl methoxyacetate] | 3
